In PubChem BioAssay AID2060889 (Molecular Pharmacology Branch, DTP, NCI, 2025):

Test system: LG0567-F671-PDC complex spheroids viability
Assay: Anticancer human tumor LG0567-F671-PDC patient-derived lung adenocarcinoma cell line growth inhibition [RAS]
Conditions: for IC50: curve of first compound; for viability, T/C: stronger effect = lower value
Method in brief: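 Tumour cells grown as complex spheroids with HUVEC endothelial cells and mesenchymal stem cells, treated with RAS pathway inhibitor combinations. Each agent spans half-log steps from near clinical Cmax, or 10 microM where Cmax is unknown.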
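Note: spheroids exposed to compound for seven days before readout.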
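Throughout, for IC50: luminescence signal used as a proxy for viable cells.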

`CC(C)n1nc(-c2ccc3oc(N)nc3c2)c2c(N)ncnc21` + CCn1c(-c2cc(N3CCN(C)CC3)cnc2C(C)OC)c2c3cc(ccc31)-c1csc(n1)CC(NC(=O)C1CC1C)C(=O)N1CCCC(N1)C(=O)OCC(C)(C)C2 gave an IC50 (second compound 0.000949 µM) of under 0.316 nM, an IC50 (second compound 0.003 µM) of under 0.316 nM and an IC50 (second compound 0.00949 µM) of under 0.316 nM. For the same compound, the IC50 (second compound 0.03 µM) was under 0.316 nM, the IC50 (second compound 0.0949 µM) was under 0.316 nM and the IC50 (second compound 0.3 µM) was under 0.316 nM. It also gave a viability, T/C (second compound 0.000949 µM, first compound 0.000316 µM) of 24.8%, a viability, T/C (second compound 0.000949 µM, first compound 0.001 µM) of 23.1% and a viability, T/C (second compound 0.000949 µM, first compound 0.00316 µM) of 18.8%. It also gave a viability, T/C (second compound 0.000949 µM, first compound 0.01 µM) of 15.1%, a viability, T/C (second compound 0.000949 µM, first compound 0.0316 µM) of 11.8% and a viability, T/C (second compound 0.000949 µM, first compound 0.1 µM) of 7.87%. It also gave a viability, T/C (second compound 0.003 µM, first compound 0.000316 µM) of 12.8%, a viability, T/C (second compound 0.003 µM, first compound 0.001 µM) of 11.2% and a viability, T/C (second compound 0.003 µM, first compound 0.00316 µM) of 8.44%. The viability, T/C (second compound 0.003 µM, first compound 0.01 µM) was 6.54%, the viability, T/C (second compound 0.003 µM, first compound 0.0316 µM) was 4.49% and the viability, T/C (second compound 0.003 µM, first compound 0.1 µM) was 3.31%. It also gave a viability, T/C (second compound 0.00949 µM, first compound 0.000316 µM) of 5.79%, a viability, T/C (second compound 0.00949 µM, first compound 0.001 µM) of 5.54% and a viability, T/C (second compound 0.00949 µM, first compound 0.00316 µM) of 4.34%. It also gave a viability, T/C (second compound 0.00949 µM, first compound 0.01 µM) of 5.27%, a viability, T/C (second compound 0.00949 µM, first compound 0.0316 µM) of 2.11% and a viability, T/C (second compound 0.00949 µM, first compound 0.1 µM) of 1.59%. The viability, T/C (second compound 0.03 µM, first compound 0.000316 µM) was 3.45%, the viability, T/C (second compound 0.03 µM, first compound 0.001 µM) was 3.53% and the viability, T/C (second compound 0.03 µM, first compound 0.00316 µM) was 2.88%. It also gave a viability, T/C (second compound 0.03 µM, first compound 0.01 µM) of 2%, a viability, T/C (second compound 0.03 µM, first compound 0.0316 µM) of 1.3% and a viability, T/C (second compound 0.03 µM, first compound 0.1 µM) of 1.03%. For the same compound, the viability, T/C (second compound 0.0949 µM, first compound 0.000316 µM) was 3.67%, the viability, T/C (second compound 0.0949 µM, first compound 0.001 µM) was 2.67% and the viability, T/C (second compound 0.0949 µM, first compound 0.00316 µM) was 2.18%. For the same compound, the viability, T/C (second compound 0.0949 µM, first compound 0.01 µM) was 1.68%, the viability, T/C (second compound 0.0949 µM, first compound 0.0316 µM) was 1.09% and the viability, T/C (second compound 0.0949 µM, first compound 0.1 µM) was 0.8%. The viability, T/C (second compound 0.3 µM, first compound 0.000316 µM) was 2.77%, the viability, T/C (second compound 0.3 µM, first compound 0.001 µM) was 2.43% and the viability, T/C (second compound 0.3 µM, first compound 0.00316 µM) was 1.81%. It also gave a viability, T/C (second compound 0.3 µM, first compound 0.01 µM) of 1.5%, a viability, T/C (second compound 0.3 µM, first compound 0.0316 µM) of 1.12% and a viability, T/C (second compound 0.3 µM, first compound 0.1 µM) of 0.62%.

`CC(C)NCC(C(=O)N1CCN(c2ncnc3c2C(C)CC3O)CC1)c1ccc(Cl)cc1` (centres undefined) + C=CC(=O)N1CCN(c2nc(OCC3CCCN3C)nc3c(F)c(-c4nc(N)cc(C)c4C(F)(F)F)c(Cl)cc23)C(C)C1 was tested, and the IC50 (second compound 0.00316 µM) was under 31.6 nM, the IC50 (second compound 0.01 µM) was under 31.6 nM and the IC50 (second compound 0.0316 µM) was under 31.6 nM. It also gave an IC50 (second compound 0.1 µM) of under 31.6 nM, an IC50 (second compound 0.316 µM) of under 31.6 nM and an IC50 (second compound 1 µM) of under 31.6 nM. For the same compound, the viability, T/C (second compound 0.00316 µM, first compound 0.0316 µM) was 16.6%, the viability, T/C (second compound 0.00316 µM, first compound 0.1 µM) was 18.9% and the viability, T/C (second compound 0.00316 µM, first compound 0.316 µM) was 14.9%. For the same compound, the viability, T/C (second compound 0.00316 µM, first compound 1 µM) was 10.8%, the viability, T/C (second compound 0.00316 µM, first compound 3.16 µM) was 10.3% and the viability, T/C (second compound 0.00316 µM, first compound 10 µM) was 9%. It also gave a viability, T/C (second compound 0.01 µM, first compound 0.0316 µM) of 17%, a viability, T/C (second compound 0.01 µM, first compound 0.1 µM) of 11.4% and a viability, T/C (second compound 0.01 µM, first compound 0.316 µM) of 10.8%. For the same compound, the viability, T/C (second compound 0.01 µM, first compound 1 µM) was 9.98%, the viability, T/C (second compound 0.01 µM, first compound 3.16 µM) was 8.68% and the viability, T/C (second compound 0.01 µM, first compound 10 µM) was 8.55%. The viability, T/C (second compound 0.0316 µM, first compound 0.0316 µM) was 13.8%, the viability, T/C (second compound 0.0316 µM, first compound 0.1 µM) was 13.7% and the viability, T/C (second compound 0.0316 µM, first compound 0.316 µM) was 10.3%. For the same compound, the viability, T/C (second compound 0.0316 µM, first compound 1 µM) was 8.15%, the viability, T/C (second compound 0.0316 µM, first compound 3.16 µM) was 7.81% and the viability, T/C (second compound 0.0316 µM, first compound 10 µM) was 7.64%. The viability, T/C (second compound 0.1 µM, first compound 0.0316 µM) was 12.6%, the viability, T/C (second compound 0.1 µM, first compound 0.1 µM) was 13.6% and the viability, T/C (second compound 0.1 µM, first compound 0.316 µM) was 11.4%. It also gave a viability, T/C (second compound 0.1 µM, first compound 1 µM) of 8.66%, a viability, T/C (second compound 0.1 µM, first compound 3.16 µM) of 8.46% and a viability, T/C (second compound 0.1 µM, first compound 10 µM) of 7.32%. The viability, T/C (second compound 0.316 µM, first compound 0.0316 µM) was 14.9%, the viability, T/C (second compound 0.316 µM, first compound 0.1 µM) was 11.9% and the viability, T/C (second compound 0.316 µM, first compound 0.316 µM) was 11.5%. It also gave a viability, T/C (second compound 0.316 µM, first compound 1 µM) of 9.81%, a viability, T/C (second compound 0.316 µM, first compound 3.16 µM) of 9.16% and a viability, T/C (second compound 0.316 µM, first compound 10 µM) of 7.21%. It also gave a viability, T/C (second compound 1 µM, first compound 0.0316 µM) of 15.6%, a viability, T/C (second compound 1 µM, first compound 0.1 µM) of 11.9% and a viability, T/C (second compound 1 µM, first compound 0.316 µM) of 12.7%. It also gave a viability, T/C (second compound 1 µM, first compound 1 µM) of 9.59%, a viability, T/C (second compound 1 µM, first compound 3.16 µM) of 10% and a viability, T/C (second compound 1 µM, first compound 10 µM) of 9.16%.
